“Also recorded” adds a separate entry of the source.
Columns and labels:
[1] = tested on: nonswarming P. aeruginosa mutant rhlA; experiment: Swarming motility of nonswarming rhlA mutant on soft agar (reactivation / agonist assay); type: cell-based, Pseudomonas aeruginosa; conditions: 85 μM in soft agar (0.5%), 24 h
Procedure, shortened: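 rhlA transposon mutant of PAO1 (3 μl, OD600 0.4–0.6) inoculated on M8 soft agar (0.2% glucose, 0.5% casamino acids, 1 mM MgSO4, 0.5% agar) with test compound to find swarming agonists. Incubated 12 h at 37 °C plus 12 h at room temperature; swarm area measured by weighing paper cut-outs of imaged swarms.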

[2] = tested on: wild type PAO1; experiment: Swarming motility of wild type PAO1 on soft agar (antagonist assay); type: cell-based, Pseudomonas aeruginosa; conditions: for Swarming motility of wild type PAO1: 85 μM in soft agar, 24 h; for Effect on PAO1 swarming: concentration not given
Procedure, shortened: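 Wild-type PAO1 culture (OD600 ~0.4–0.6, 3 μl) spotted on M8 swarm agar with 0.2% glucose, 0.5% casamino acids, 1 mM MgSO4 and 0.5% agar. Plates incubated 12 h at 37 °C then 12 h at room temperature; swarm area measured by cutting and weighing printed plate images.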

[3] = tested on: PAO1 biofilm; experiment: Crystal violet based static biofilm inhibition assay, DSHs in LB media (Examples 2 and 4); type: cell-based, Pseudomonas aeruginosa; conditions: for Inhibition of PAO1 biofilm formation (surface attached): 160 μM, 24 h, LB media; for Anti-biofilm activity (biofilm inhibition): concentration not given
Procedure, shortened: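 PAO1 subculture (OD600 ~0.1) was grown statically in LB at 37° C for 24 h with or without DSHs (screened at 160 μM). Surface-attached biofilm was then stained with 0.1% crystal violet, solubilised in 30% AcOH and read at 600 nm. Values are the mean of 4 wells.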

[4] = tested on: PAO1-EGFP; experiment: Fluorescence adhesion assay on polystyrene, DSHs (Examples 2 and 4); type: cell-based, Pseudomonas aeruginosa; conditions: 160 μM
Method: The ability of DSHs was tested to inhibit Pseudomonas aeruginosa adhesion, biofilm and to disperse pre-formed biofilm. To quantify the amount of PAO1/EGFP attached on the surface of micro titer plates with or without the synthesized DSHs, fluorescence emitted by green fluorescent proteins (GFP) was quantified (see supporting info for details). Crystal violet (CV) based static biofilm assay (see supporting info) was used to screen the anti-biofilm potencies of all synthesized agents. Both surface attached (SA) (FIG. 17) and total (SA+air-liquid interface) biofilm of P. aeruginosa was quantified. […] CV assays were also used to quantify the amount of P. aeruginosa biofilm remaining after dispersion experiments (FIG. 19). Initially, all agents were screen for anti-biofilm activities (both inhibition and dispersion) at 160 μM. […]
The effect that DSHs have on the adhesion of PAO1-EGFP on polystyrene surface (microtiter plate) was also examined. […] After 24-hours, the fluorescent signal obtained from surface adhered PAO1-EGFP was measured. Percent reduction in fluorescence was calculated by comparing fluorescent signal from PAO1-EGFP grown in LB-media with the signal from wells that had DSHs (FIG. 29A). […] After 24 hours, the surface attached biofilms adhering to the bottom of the wells were stained with crystal-violet dye and the biofilm was quantified by measuring absorbance at 600 nm (OD600). […]

[5] = tested on: 1-day old PAO1 biofilm; experiment: Crystal violet assay for dispersion of 1-day old biofilm, DSHs (Examples 2 and 4); type: cell-based, Pseudomonas aeruginosa; conditions: 160 μM, another 24 h
Method: The effect that DSHs have on the adhesion of PAO1-EGFP on polystyrene surface (microtiter plate) was also examined. PAO1-EGFP is a P. aeruginosa strain that constitutively expresses green fluorescent protein. In the adhesion assays, PAO1-EGFP was grown in microtiter plate for 24-hours in LB-media with (160 μM) or without DSHs. After 24-hours, the fluorescent signal obtained from surface adhered PAO1-EGFP was measured. Percent reduction in fluorescence was calculated by comparing fluorescent signal from PAO1-EGFP grown in LB-media with the signal from wells that had DSHs (FIG. 29A). To study the effect of DSHs on biofilm formation, Pseudomonas aeruginosa (PAO1) was grown in LB-media with (160 μM) or without DSHs at 37° C. under static conditions within wells of microtiter plates. After 24 hours, the surface attached biofilms adhering to the bottom of the wells were stained with crystal-violet dye and the biofilm was quantified by measuring absorbance at 600 nm (OD600). The percent inhibition was calculated by comparing biofilm content of wells with no added agents (control) with the biofilm content from wells that had 160 μM of DSHs (FIG. 29A). Similar to inhibition, the surface attached biofilm after dispersion with DSHs was quantified with crystal-violet staining and absorbance measurement at 600 nm, except that for dispersion, biofilm was first grown for 1 day in just LB-media without any DSHs after which DSHs were added and plates were incubated for additional 24 hours followed by quantification (FIG. 29B).
Crystal violet based assay for quantifying dispersion of 1-day old PAO1 biofilms were Plate for set up similar to inhibition assay with a slight modification. Wells of the micro-titer plate was inoculated with (200 μL) bacterial subculture (PAO1 subculture OD600 ˜0.1). The plates were incubated at 37° C. for 24 hours to allow biofilm formation. After 24 hours, bacterial culture was gently pipetted out and appropriate volume of DSH were added followed by addition of fresh LB medium (200 μL). The microtiter plate was incubated for an additional 24 hours at 37° C., following which, similar to work up of inhibition assay, culture was removed, wells were washed and CV-dye was introduced, followed by washing and destaining with 30% AcOH solution in water and quantification at 600 nm. Here again, only the surface attached biofilm dispersed was reported by comparing wells with DSHs with wells with no agent.
Dose dependence assays for biofilm inhibition and dispersion. […] Both for biofilm inhibition and dispersion, predetermined volumes of DSH stocks were added to the assigned wells to span a concentration range between 0.5 μM-170 μM. Percent biofilm inhibition of dispersion was calculated by comparing to wells with no agent. The percent biofilm inhibition or dispersion was plotted versus concentration of DSHs. The linear values were logarithmically curve fitted using equation […]. The half maximal inhibitory concentration for both biofilm inhibition and dispersion (IC50 and DC50) were thus obtained.

[6] = tested on: planktonic Pseudomonas aeruginosa (PAO1); experiment: Planktonic bacterial growth (OD600 growth curve); type: cell-based; conditions: 160 μM, LB
Method: Antimicrobial activities of disaccharide hydrocarbons against planktonic growth. Overnight inoculum of PAO1 was sub-cultured to an OD600˜0.1 and then aliquoted (200 μL) into the wells of a micro-titer plate and DSHs (˜160 μM) were then added to assigned wells. Wells with no-agents were created as a positive control. The micro-titer plate was then placed in a rotary shaker (250 rpm at 37° C.) and optical density was measured after regular intervals of time using Biotek ELx800 ™ absorbance microplate reader (BioTek Instruments, Inc., Winooski, Vt.) using Gen5™ data analysis software. The OD600 values were taken in sterile conditions over 24 h. The OD600 values were plotted against time to obtain a growth curve for planktonic growth with or without agents.
Optical density was measured using Biotek ELx800 ™ absorbance microplate reader (BioTek Instruments, Inc., Winooski, Vt.) using Gen5™ data analysis software. The OD600 values were taken in sterile conditions at 0, 2, 4, 6, 8, 10, 12, and 24 h after bacterial culture inoculation in 96-well polystyrene plate with and without agents.

[7] = tested on: PAO1 and rhlA; experiment: Bacterial growth on soft agar swarm plate; type: cell-based, Pseudomonas aeruginosa
Method: Swarm agar plates were based on M8 medium supplemented with 0.2% glucose, 0.5% casamino acid, 1 mM MgSO4 and […]. 17 For each set of experiment all the swarm plates were poured from same batch of agar and allowed to dry for 1 h before inoculation of bacteria. Bacterial culture (3 μl) (wild type PAO1 or rhlA mutant) with OD600 between […] was inoculated on the solidified agar plates. Swarm agar plates were incubated at 37° C. for 12 h and then incubated for additional 12 h at room temp. Chronological images of swarm plates were taken using a camera. To measure swarming area, sizes of the petridish in all swarming images were adjusted to a pre-assigned diameter and images were printed on copying paper (Xerox-business 4200). Weight of a 1 cm^2 copy paper square was roughly ˜8.0 mg. swarming images on the copy paper were cut and weighed, the swarm area was calculated by dividing the weight of image by weight of 1 cm^2 square (8 mg).

Molecule	Swarming motility of rhlA mutant [1]	Swarming motility of wild type PAO1 [2]	Effect on PAO1 swarming [2]	Inhibition of PAO1 biofilm formation (surface attached) [3]	Inhibition of PAO1 biofilm formation (surface attached) ([3]; listed as 18: DβCDS, 160 µM)	Anti-biofilm activity (biofilm inhibition) [3]	Adhesion inhibition of PAO1-EGFP on polystyrene [4] [%]	Dispersion of 24-h old PAO1 biofilm [5]	Inhibition of PAO1 biofilm formation (surface attached) ([3]; listed as 11: FβC, 160 µM)	Inhibition of planktonic growth of Pseudomonas aeruginosa [6]	Bacterial growth on soft-agar plate ([7]; 160 μM, PAO1 and rhlA)	Bacterial growth on soft agar (~0.5%) plate ([7]; PAO1, concentration not stated)
dodecyl-β-cyclodextrin [DβCDS (18)]	no significant effect on the swarming motility	no significant effect on the swarming motility	no apparent effect on PAO1 swarming	insignificant biofilm inhibition	increased the biofilm content	weak anti-biofilm activity; also recorded: did not show anti-biofilm activities	29	promoted biofilm formation instead of causing dispersion				
CC(C)=CCC/C(C)=C/CC/C(C)=C/CO[C@@H]1O[C@H](CO)[C@@H](O[C@@H]2O[C@H](CO)[C@@H](O)[C@H](O)[C@H]2O)[C@H](O)[C@H]1O [FβC (11), farnesyl-β-cellobioside]	weak activation of rhlA swarming motility	weak promotion of swarming motility of wild type PAO1	no apparent effect on PAO1 swarming			did not show anti-biofilm activities			poor anti-biofilm activity	did not inhibit the planktonic growth	complete abolition of bacterial growth on the soft-agar plate	inhibited bacterial (PAO1) growth on a soft agar
